A word on the GI50: it is the concentration giving 50% growth inhibition.

The text below walks through data of patent US6160004A, “C-10 carbon-substituted artemisinin-like trioxane compounds having antimalarial, antiproliferative and antitumor activities” (priority 1998, dated 2000).

One series concerns CCRF-CEM. Put plainly: cells. The conditions noted are these: Homo sapiens, leukemia, 48 h, read-out: Log10 TGI. It counts as cell-based.
For the next series, the system named is RPMI-8226. The experiment in a line: NCI 60 cell line panel screening assay (SRB), RPMI-8226. The conditions noted are these: Homo sapiens, RPMI-8226, leukemia, 48 h. It counts as cell-based.
For a further series, the system named is M14. The experiment in a line: NCI 60 cell line panel screening assay (SRB), M14. As to conditions: Homo sapiens, M14, 48 h, read-out: Log10 TGI.
The subject of a further series is LOX IMVI. The experiment in a line: cells. The series is classed as cell-based. As to conditions: Homo sapiens, melanoma, 48 h, read-out: Log10 TGI (converted).
For the next series, the system named is 60 cell line panel. Put plainly: NCI 60 cell line panel, whole panel. The conditions noted are these: panel.
The next series concerns HCT-116. Put plainly: cells. The series is classed as cell-based. The conditions noted are these: Homo sapiens, HCT-116, 48 h.
Another series has as its system OVCAR-5. Put plainly: cells. The series is classed as cell-based. The conditions noted are these: Homo sapiens; OVCAR-5, ovarian cancer, 48 h; read-out: Log10 TGI (converted).
For a further series, the system named is OVCAR-3. Put plainly: cells. The conditions noted are these: Homo sapiens; OVCAR-3, ovarian cancer, 48 h; read-out: Log10 TGI (converted). It counts as cell-based.
A further series deals with PC-3. Put plainly: cells. As to conditions: Homo sapiens; PC-3, prostate cancer, 48 h; read-out: Log10 TGI. It counts as cell-based.
The subject of series [1] is MOLT-4. The experiment in a line: cells. The conditions noted are these: Homo sapiens, MOLT-4, 48 h.
In another series the test system is NCI-H522. Put plainly: cells. The series is classed as cell-based. As to conditions: Homo sapiens; NCI-H522, non-small cell lung cancer, 48 h; read-out: Log10 TGI (converted).
The test system of the next series is MDA-N. Put plainly: NCI 60 cell line panel screening assay (SRB), MDA-N. The series is classed as cell-based. The conditions noted are these: Homo sapiens, breast cancer, 48 h, read-out: Log10 GI50 (converted).
The test system of another series is OVCAR-8. Put plainly: cells. It counts as cell-based. As to conditions: Homo sapiens; OVCAR-8, ovarian cancer, 48 h; read-out: Log10 GI50 (converted).
The next series concerns U251. Put plainly: cells. It counts as cell-based. The conditions noted are these: Homo sapiens, U-251; U251, CNS cancer, 48 h; read-out: Log10 TGI (converted).
In a further series the test system is NCI-H460. The experiment in a line: cells. As to conditions: Homo sapiens, NCI-H460, non-small cell lung cancer, 48 h. It counts as cell-based.
The test system of a further series is BT-549. The experiment in a line: cells. It counts as cell-based. As to conditions: Homo sapiens, BT-549, breast cancer, 48 h.
In a further series the test system is OVCAR-4. Put plainly: cells. The series is classed as cell-based. The conditions noted are these: Homo sapiens, OVCAR-4, 48 h.
Another series has as its system MDA-MB435. The experiment in a line: NCI 60 cell line panel screening assay (SRB), MDA-MB435. The series is classed as cell-based. As to conditions: Homo sapiens, MDA-MB-435; printed MDA-MBA35, breast cancer, 48 h; read-out: Log10 GI50 (converted).
For another series, the system named is KM12. The experiment in a line: cells. It counts as cell-based. As to conditions: Homo sapiens; KM12, colon cancer, 48 h; read-out: Log10 TGI.
The test system of a further series is MDA-MB231/ATCC. The experiment in a line: cells. The conditions noted are these: Homo sapiens, MDA-MB-231, breast cancer, 48 h, read-out: Log10 TGI (converted). The series is classed as cell-based.
The next series concerns MALME-3M. The experiment in a line: cells. It counts as cell-based. As to conditions: Homo sapiens, Malme-3M, 48 h, read-out: Log10 TGI.
A further series relates to MCF7/ADR-RES. The experiment in a line: cells. The series is classed as cell-based. The conditions noted are these: Homo sapiens; MCF7/ADR-RES, breast cancer, 48 h; read-out: Log10 TGI.
A further series concerns NCI-H322M. The experiment in a line: cells. The conditions noted are these: Homo sapiens, 48 h, read-out: Log10 TGI.
In the next series the test system is HL-60(TB). Put plainly: cells. It counts as cell-based. The conditions noted are these: Homo sapiens, HL-60, 48 h, read-out: Log10 TGI.
The subject of series [2] is MOLT-4. As to conditions: MOLT-4, FIG. 6.
The next series deals with SW-620. Put plainly: NCI 60 cell line panel screening assay (SRB), SW-620. It counts as cell-based. The conditions noted are these: Homo sapiens; SW-620, colon cancer, 48 h; read-out: Log10 TGI.
Another series has as its system SNB-19. Put plainly: cells. The series is classed as cell-based. As to conditions: Homo sapiens; SNB-19, CNS cancer, 48 h; read-out: Log10 TGI.
The test system of a further series is K-562. The experiment in a line: cells. It counts as cell-based. As to conditions: Homo sapiens, K562; K-562, leukemia, 48 h; read-out: Log10 TGI (converted).
Another series has as its system T-47D. The experiment in a line: NCI 60 cell line panel screening assay (SRB), T-47D. As to conditions: Homo sapiens, T47D, 48 h, read-out: Log10 GI50 (converted).
In the next series the test system is IGROVI. Put plainly: NCI 60 cell line panel screening assay (SRB), IGROVI. As to conditions: 48 h, read-out: Log10 TGI. The series is classed as cell-based.
The test system of a further series is UACC-257. The experiment in a line: cells. It counts as cell-based. The conditions noted are these: Homo sapiens, UACC-257, 48 h; read-out: Log10 TGI (converted).
Another series deals with HT29. Put plainly: cells. It counts as cell-based. The conditions noted are these: Homo sapiens, HT-29; HT29, colon cancer, 48 h; read-out: Log10 GI50 (converted).
The test system of another series is 786-0. Put plainly: cells. The series is classed as cell-based. The conditions noted are these: Homo sapiens; 786-0, renal cancer, 48 h; read-out: Log10 TGI.
The subject of the next series is SR. The experiment in a line: cells. The series is classed as cell-based. The conditions noted are these: Homo sapiens, leukemia, 48 h, read-out: Log10 TGI.
Another series deals with SN12C. Put plainly: NCI 60 cell line panel screening assay (SRB), SN12C. It counts as cell-based. The conditions noted are these: Homo sapiens, 48 h, read-out: Log10 TGI.
The test system of a further series is HOP-62. The experiment in a line: cells. It counts as cell-based. As to conditions: Homo sapiens; HOP-62, non-small cell lung cancer, 48 h; read-out: Log10 TGI (converted).
A further series relates to DU-145. The experiment in a line: cells. It counts as cell-based. As to conditions: Homo sapiens, DU-145, 48 h; read-out: Log10 TGI.
The subject of a further series is HCT-15. Put plainly: cells. It counts as cell-based. The conditions noted are these: Homo sapiens, HCT-15, colon cancer, 48 h.
The conditions of series [3]: cited from earlier work.
The conditions of series [4]: rat liver microsomes; cited from earlier work. On the technique in general: Microsomes from liver hold many membrane-bound enzymes, among them those of drug oxidation.
The subject of another series is PE cells. Put plainly: Viability by trypan blue exclusion. It counts as cell-based, murine (SENCAR mice). As to conditions: 96 hours.
The mark [5] stands for this setting: read-out: Log10 GI50 (converted).
Where [6] appears, read: read-out: Log10 TGI (converted).

Molecules are shown by their SMILES.

Take `CC(=O)O[C@H]1C(=O)[C@@]2(C)[C@H]([C@H](OC(=O)c3ccccc3)[C@]3(O)C[C@H](OC(=O)[C@H](O)[C@@H](NC(=O)c4ccccc4)c4ccccc4)C(C)=C1C3(C)C)[C@]1(OC(C)=O)CO[C@@H]1C[C@@H]2O` [Paclitaxel, reference compound]: the IC (TGI) in the series with CCRF-CEM is above 100 µM; with RPMI-8226 (read-out: Log10 TGI), above 100 µM; with M14, 24 µM; with LOX IMVI, 22.4 µM; with HCT-116 (setting [6]), 15.1 µM; in the series with OVCAR-5 it was 12 µM. Also, the IC (TGI) in the series with OVCAR-3 was 28.2 µM; in the series on PC-3, above 100 µM; in the series on MOLT-4 [1] (read-out: Log10 TGI), above 100 µM; in the series on NCI-H522 it was 6.31 pM; in the series with U251, 47.9 µM; in the series with NCI-H460 (setting [6]), 12 µM. Moreover, the IC (TGI) was 0.479 µM in the series with BT-549 (setting [6]); 64.6 µM in the series with OVCAR-4 (read-out: Log10 TGI); 43.7 µM in the series on KM12; 14.5 µM in the series with MDA-MB231/ATCC; 34.7 µM with MALME-3M; above 100 µM in the series with MCF7/ADR-RES. In addition, the IC (TGI) with NCI-H322M is 34.7 µM; with HL-60(TB) it was above 29.5 µM; in the series with SW-620 it was above 100 µM; in the series with SNB-19 it was above 100 µM; in the series with K-562 it was above 100 µM; with IGROVI it was 64.6 µM. Moreover, the IC (TGI) in the series with UACC-257 was 30.2 µM; in the series on 786-0, above 100 µM; in the series on SR, above 100 µM; in the series with SN12C, 51.3 µM; in the series with HOP-62 it was 15.8 µM; with DU-145, above 100 µM. Moreover, the IC (TGI) in the series with HCT-15 (read-out: Log10 TGI) is above 100 µM. Besides, the concentration for 50% growth inhibition (GI50) is below 0.1 pM in the series with RPMI-8226 (setting [5]); below 0.1 pM in the series on HCT-116 (setting [5]); below 0.1 pM in the series with MDA-N; 0.0178 nM in the series with OVCAR-8; below 0.1 pM in the series on NCI-H460 (setting [5]); 0.00049 µM in the series on BT-549 (setting [5]). For the same compound, the GI50 with OVCAR-4 (setting [5]) was 10 µM; with MDA-MB435, below 0.1 pM; with T-47D it was 0.000155 µM; in the series on HT29, below 0.1 pM; with HCT-15 (setting [5]) it was 0.427 µM. Besides, the “Delta of Log10 LC50” value with 60 cell line panel is -4.06. Moreover, the “Delta of Log10 TGI” value with 60 cell line panel was -4.54. Also, the “Range of Log10 TGI” value in the series on 60 cell line panel is listed as 7.20. The CC50 in the series on MOLT-4 [1] (read-out: Log10 LC50 (converted)) was above 100 µM. Also, in the series on MOLT-4 [2], the “concentration for cytostasis (PG 0)” value is “greater than 10^-4 M”.

Consider `C[C@@H]1CC[C@H]2[C@@H](C)C(O)O[C@@H]3O[C@@]4(C)CC[C@@H]1[C@]32OO4` (some centres unmarked) [dihydroartemisinin], for which the half-life in plasma entry in series [3] was “less than two”.

Take `CCO[C@H]1O[C@@H]2O[C@@]3(C)CC[C@H]4[C@H](C)CC[C@@H]([C@H]1C)[C@@]24OO3` [arteether]: the conversion into dihydroartemisinin entry in series [4] is recorded as “rapidly converted”.

On to `C=C1/C(=C\C=C2/CCC[C@]3(C)[C@@H]([C@H](C)CCCC(C)(C)O)CC[C@@H]23)C[C@@H](O)C[C@@H]1O` [calcitriol, 1α, 25-dihydroxyvitamin D3], for which the “viability of treated cells” value with PE cells was “identical to control cells”.
